Assay results: US20230210999A1, “TARGETED PROTEASE DEGRADATION (TED) PLATFORM” (EUBULUS BIOTHERAPEUTICS INC., priority 2020, published 2023)

Experiments:
Assay type in all cases: cell-based, human
MDA-MB-231 cells = assay: Cell proliferation experiment, MDA-MB-231; conditions: Homo sapiens, MDA-MB-231, MDA-MB-231 cells; read-out: Inhibitory activity IC50 on MDA-MB-231
Description: (§1) Reagents: RPMI-1640 medium, McCoy's 5A medium, IMDM medium, MEM medium, L-15 medium, fetal bovine serum. Penicillin-Streptomycin double antibody, trypsin, etc., 2-mercaptoethanol, NEAA, pyruvate, etc.
(§2) The cells were cultured in conventional ways, and the cells should be passed at least 2 generations before plating. Cells at the logarithmic growth phase were collected, prepared into single cell suspensions and counted. The concentration of cells was adjusted to the desired concentration, and cells were inoculated into a 96-well cell culture plate at 100 μl per well. 100 μL of complete medium of the test compound were added to each well, set up 2 duplicate wells for each concentration, and diluted with a 5-fold gradient, and continued to culture for 72 h. All cells were subjected to IC50 test for corresponding samples. The experimental results are shown in Test Example 4.
(§3) The fluorescence intensity of each well was detected using the Alarm blue method, and IC50 was calculated.
(§4) IC50 was calculated according to the following formula:
(§5) Y=Max+(Min−Max)/[1+(X/IC50)×Slope]
(§6) wherein Min, Max and Slope represent the minimum, maximum and slope respectively.

MV4;11 cells = assay: Cell proliferation experiment (Alamar blue, 72 h), MV4;11; conditions: Homo sapiens, MV4-11, MV4;11 cells; read-out: Inhibitory activity IC50 on MV4;11
Method in brief: (§7)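 IC50 values derive from a four-parameter logistic fit of Alamar blue fluorescence. Cells in logarithmic growth, plated in 96-well format, are treated for 72 h with compound diluted 5-fold serially, two wells per concentration.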

PC-3 = assay: Cell proliferation experiment, PC-3; conditions: Homo sapiens, PC-3, PC-3 cells; read-out: Inhibitory activity IC50 on PC-3
Description: as §1, §2, §3, §4, §5, §6

NCIH82 cells = assay: Cell proliferation experiment, NCI-H82; conditions: Homo sapiens, NCI-H82, NCI-H82 cells; read-out: Inhibitory activity IC50 on NCI-H82
Method in brief: as §7

SMILES | IC50 (MDA-MB-231 cells) | IC50 (MV4;11 cells) | IC50 (PC-3) | IC50 (NCIH82 cells)
CNC(=O)c1ccccc1Nc1nc(Nc2ccc(N3CCN(C(=O)NCCNCCCC(=O)Nc4ccc5c(c4)CN(C4CCC(=O)NC4=O)C5=O)CC3)cc2)ncc1Cl (stereo not drawn) [UB-181056] | > 1 µM | 0.01 to 0.1 µM | > 1 µM | 0.1 to 1 µM
CNC(=O)c1ccccc1Nc1nc(Nc2ccc(N3CCN(C(=O)NCCNCCOCC(=O)Nc4cccc5c4CN(C4CCC(=O)NC4=O)C5=O)CC3)cc2)ncc1Cl (stereo not drawn) [UB-181057] | > 1 µM | < 0.01 µM | > 1 µM | 0.1 to 1 µM
CNC(=O)c1ccccc1Nc1nc(Nc2ccc(N3CCN(C(=O)NCCNCCOCC(=O)Nc4ccc5c(c4)CN(C4CCC(=O)NC4=O)C5=O)CC3)cc2)ncc1Cl (stereo not drawn) [UB-181058] | > 1 µM | 0.01 to 0.1 µM | > 1 µM | 0.1 to 1 µM
CNC(=O)c1ccccc1Nc1nc(Nc2ccc(N3CCN(C(=O)NCCOCCOCCOCCC(=O)Nc4ccc5c(c4)CN(C4CCC(=O)NC4=O)C5=O)CC3)cc2)ncc1Cl (stereo not drawn) [UB-181060] | > 1 µM | 0.01 to 0.1 µM | > 1 µM | 0.01 to 0.1 µM
CNC(=O)c1ccccc1Nc1nc(Nc2ccc(N3CCN(C(=O)NCCCNCCOCC(=O)Nc4cccc5c4CN(C4CCC(=O)NC4=O)C5=O)CC3)cc2)ncc1Cl (stereo not drawn) [UB-181061] | 0.1 to 1 µM | < 0.01 µM | > 1 µM | 0.1 to 1 µM
CNC(=O)c1ccccc1Nc1nc(Nc2ccc(N3CCN(C(=O)NCCCNCCOCC(=O)Nc4ccc5c(c4)CN(C4CCC(=O)NC4=O)C5=O)CC3)cc2)ncc1Cl (stereo not drawn) [UB-181062] | > 1 µM | 0.01 to 0.1 µM | > 1 µM | 0.1 to 1 µM
NC(COCCOCCNC(=O)[C@]1(Cc2cccc(Nc3nccs3)n2)CC[C@@H](Oc2cccc(Cl)c2F)CC1)COCCC(=O)Nc1ccc2c(c1)CN(C1CCC(=O)NC1=O)C2=O (stereo partly drawn) [UB-181064] | > 1 µM | > 1 µM | > 1 µM | > 1 µM
CNC(=O)c1ccccc1Nc1nc(Nc2ccc(N3CCN(C(=O)NCCOCCOCC(N)COCCC(=O)Nc4ccc5c(c4)CN(C4CCC(=O)NC4=O)C5=O)CC3)cc2)ncc1Cl (stereo not drawn) [UB-181065] | > 1 µM | 0.01 to 0.1 µM | > 1 µM | 0.1 to 1 µM
CNC(=O)c1ccccc1Nc1nc(Nc2ccc(N3CCN(C(=O)NCCOCCNCCC(=O)Nc4cccc5c4CN(C4CCC(=O)NC4=O)C5=O)CC3)cc2)ncc1Cl (stereo not drawn) [UB-181066] | > 1 µM | 0.01 to 0.1 µM | > 1 µM | > 1 µM

Further lines, results first:

IC50 (MDA-MB-231 cells) | IC50 (MV4;11 cells) | IC50 (PC-3) | IC50 (NCIH82 cells) | SMILES
> 1 µM | 0.01 to 0.1 µM | > 1 µM | 0.1 to 1 µM | CNC(=O)c1ccccc1Nc1nc(Nc2ccc(N3CCN(C(=O)NCCOCCNCCC(=O)Nc4ccc5c(c4)CN(C4CCC(=O)NC4=O)C5=O)CC3)cc2)ncc1Cl (stereo not drawn) [UB-181067]
> 1 µM | 0.01 to 0.1 µM | > 1 µM | > 1 µM | CNC(=O)c1ccccc1Nc1nc(Nc2ccc(N3CCN(C(=O)NCCOCCNCC(=O)Nc4cccc5c4CN(C4CCC(=O)NC4=O)C5=O)CC3)cc2)ncc1Cl (stereo not drawn) [UB-181068]
> 1 µM | 0.01 to 0.1 µM | > 1 µM | > 1 µM | CNC(=O)c1ccccc1Nc1nc(Nc2ccc(N3CCN(C(=O)NCCOCCNCC(=O)Nc4ccc5c(c4)CN(C4CCC(=O)NC4=O)C5=O)CC3)cc2)ncc1Cl (stereo not drawn) [UB-181069]
0.1 to 1 µM | 0.01 to 0.1 µM | > 1 µM | 0.1 to 1 µM | CNC(=O)c1ccccc1Nc1nc(Nc2ccc(N3CCN(C(=O)NCCCOCCCNCCC#Cc4cccc5c4CN(C4CCC(=O)NC4=O)C5=O)CC3)cc2)ncc1Cl (stereo not drawn) [UB-181070]
> 1 µM | 0.1 to 1 µM | > 1 µM | > 1 µM | O=C1CCC(N2Cc3cc(NC(=O)COCCOCCOCC(O)Cn4cc(-c5ccc(Nc6ncc7c(n6)-c6ccc(Cl)cc6C(c6c(F)cccc6F)=NC7)cc5)nn4)ccc3C2=O)C(=O)N1 (stereo not drawn) [UB-181071]
> 1 µM | 0.1 to 1 µM | > 1 µM | > 1 µM | O=C1CCC(N2Cc3c(NC(=O)COCCOCCOCC(O)Cn4cc(-c5ccc(Nc6ncc7c(n6)-c6ccc(Cl)cc6C(c6c(F)cccc6F)=NC7)cc5)nn4)cccc3C2=O)C(=O)N1 (stereo not drawn) [UB-181072]
